Earlier results on 8 molecules are cited in patent US6440942B1, “14-membered macrolides derived from leucomycins” (Enanta Pharmaceuticals, Inc., priority 2000, dated 2002).

Read-outs that look alike come from different tables or passages of the source.

For data set [1] the following is noted: for in vitro potency relative to the parent compound: main metabolites of rokitamycin, parent compound = rokitamycin; for antimicrobial activity: josamycin metabolites isolated from urine and plasma of adults given oral josamycin.
The test system of data set [2] is Mycoplasma spp.
The test system of data set [3] is Gram-positive bacteria.
The test system of data set [4] is Gram-negative bacteria.
The conditions of data set [5]: dogs; compared with other 4″-O-butyryl derivatives.
The conditions of data set [6]: monkeys; compared with other 4″-O-butyryl derivatives.

On to “4″-debutyryl leucomycin A5 [leucomycin V]”, for which, in data set [1], the “in vitro potency relative to the parent compound” value is reported as “one-tenth”.

In the case of demycarosyl josamycin, the antimicrobial activity result in data set [1] is “inactive”.

With β-hydroxyisovaleryl josamycin, the antimicrobial activity result in data set [1] is on record as “poor”.

`COC1C(OC(C)=O)CC(=O)OC(C)CC=CC=CC(O)C(C)CC(CC=O)C1OC1OC(C)C(OC2CC(C)(O)C(O)C(C)O2)C(N(C)C)C1O` (stereo not drawn) [desisovaleryl josamycin]: the antimicrobial activity result in data set [1] is “inactive”.

`COC1C(O)CC(=O)OC(C)CC=CC=CC(=O)C(C)CC(CC=O)C1OC1OC(C)C(OC2CC(C)(O)C(OC(=O)CC(C)C)C(C)O2)C(N(C)C)C1O` (stereo not drawn) [Niddamycin]: the “antibacterial activity in vitro” value in data set [2] and in data set [3] was “good” throughout.

Regarding 5-hydroxyjosamycin, the antimicrobial activity entry in data set [1] is listed as “poor”.

Take `CCCC(=O)O[C@H]1[C@H](C)O[C@@H](O[C@H]2[C@H](N(C)C)[C@@H](O)[C@H](O[C@H]3[C@@H](CC=O)C[C@@H](C)[C@@H](O)/C=C/C=C/C[C@@H](C)OC(=O)C[C@@H](O)[C@@H]3OC)O[C@@H]2C)C[C@@]1(C)OC(=O)CC` [rokitamycin, 3″-O-propionyl leucomycin A5]: the “in vitro activity against Gram-negative bacteria relative to leucomycin A5, josamycin and midecamycin” value in data set [4] is reported as “twice as high”. In addition, the serum levels entry in data set [5] and in data set [6] was “highest” throughout. In addition, in data set [1] (compared with other 3″-O-acyl leucomycin A5 derivatives), the “activity among 4″-O-butyryl derivatives” value is listed as “most active”.

Take `CCC(=O)O[C@H]1[C@H](C)O[C@@H](O[C@H]2[C@H](N(C)C)[C@@H](O)[C@H](O[C@H]3[C@@H](CC=O)C[C@@H](C)[C@@H](O)/C=C/C=C/C[C@@H](C)OC(=O)C[C@@H](O)[C@@H]3OC)O[C@@H]2C)C[C@@]1(C)O` [Leucomycin A7]: the “in vitro potency relative to the parent compound” value in data set [1] was “one-half”.
